Where two headings read alike, the source gives them in different places.
Biological target: SHP2 (Homo sapiens (Human), UniProt Q06124)
Test: SHP2 Allosteric Inhibition Assay
Type: biochemical
Settings: 0.5 nM SHP2 with 0.5 μM peptide IRS1_pY1172(dPEG8)pY1222, surrogate substrate DiFMUP, 25° C.
Excerpt: SHP2 Allosteric Inhibition Assay
SHP2 is allosterically activated through binding of bis-tyrosyl-phosphorylated peptides to its Src Homology 2 (SH2) domains. The latter activation step leads to the release of the auto-inhibitory interface of SHP2, which in turn renders the SHP2 protein tyrosine phosphatase (PTP) active and available for substrate recognition and reaction catalysis. The catalytic activity of SHP2 was monitored using the surrogate substrate DiFMUP in a prompt fluorescence assay format.
After 30-60 minutes incubation at 25° C., the surrogate substrate DiFMUP (Invitrogen, cat #D6567) was added to the reaction and incubated at 25° C. for 30 minutes. […] The inhibitor dose response curves were analyzed using normalized IC50 regression curve fitting with control based normalization.

Chain of SHP2 (Q06124 whole entry): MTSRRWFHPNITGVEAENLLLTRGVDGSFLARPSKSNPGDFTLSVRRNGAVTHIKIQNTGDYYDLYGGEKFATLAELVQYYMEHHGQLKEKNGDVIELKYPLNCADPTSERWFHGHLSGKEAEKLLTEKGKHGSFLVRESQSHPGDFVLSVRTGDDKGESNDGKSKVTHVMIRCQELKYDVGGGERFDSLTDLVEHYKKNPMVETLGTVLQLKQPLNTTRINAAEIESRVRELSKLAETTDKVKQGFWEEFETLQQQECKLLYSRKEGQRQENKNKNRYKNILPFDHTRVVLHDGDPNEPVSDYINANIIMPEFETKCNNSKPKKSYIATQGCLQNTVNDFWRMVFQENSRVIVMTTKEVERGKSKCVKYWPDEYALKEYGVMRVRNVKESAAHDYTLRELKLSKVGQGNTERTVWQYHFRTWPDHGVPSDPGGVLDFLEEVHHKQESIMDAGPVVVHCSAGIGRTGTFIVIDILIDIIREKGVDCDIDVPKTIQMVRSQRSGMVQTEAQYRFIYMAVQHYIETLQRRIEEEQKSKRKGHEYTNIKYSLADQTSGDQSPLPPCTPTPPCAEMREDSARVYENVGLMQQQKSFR

| SMILES | IC50 (read-out: SHP2 IC50) | IC50 (read-out: IC50) |
| --- | --- | --- |
| Cn1c(N2CCC3(CC2)CC(F)(F)C[C@H]3N)nc2[nH]nc(-c3ccnc(NC4CC4)c3Cl)c2c1=O [Example 50, (R)-6-(1-amino-3,3-difluoro-8-azaspiro[4.5]decan-8-yl)-3-(3-chloro-2-(cyclopropylamino)pyridin-4-yl)-5-methyl-1,5-dihydro-4H-pyrazolo[3,4-d]pyrimidin-4-one] | 35 nM | – |
| C[C@@H]1OCC2(CCN(c3nc4[nH]nc(-c5cccc(F)c5)c4c(=O)n3C)CC2)[C@@H]1N [Example 61, 6-((3S,4S)-4-amino-3-methyl-2-oxa-8-azaspiro[4.5]decan-8-yl)-3-(3-fluorophenyl)-5-methyl-1,5-dihydro-4H-pyrazolo[3,4-d]pyrimidin-4-one] | 14 nM | – |
| C[C@@H]1OCC2(CCN(c3cnc4c(-c5cccc(Cl)c5Cl)c[nH]c4n3)CC2)[C@@H]1N [Example 12, (3S,4S)-8-(7-(2,3-dichlorophenyl)-5H-pyrrolo[2,3-b]pyrazin-3-yl)-3-methyl-2-oxa-8-azaspiro[4.5]decan-4-amine] | – | 39 nM |
| Cn1c(N2CCC3(CCCCC3N)CC2)nc2[nH]nc(-c3cccc(Cl)c3Cl)c2c1=O (stereo not drawn) [Example 24, 6-(7-amino-3-azaspiro[5.5]undecan-3-yl)-3-(2,3-dichlorophenyl)-5-methyl-1,5-dihydro-4H-pyrazolo[3,4-d]pyrimidin-4-one] | 72 nM | – |
| COc1ccc(-c2n[nH]c3nc(N4CCC5(CC4)CO[C@@H](C)[C@H]5N)n(C)c(=O)c23)cn1 [Example 64, 6-((3S,4S)-4-amino-3-methyl-2-oxa-8-azaspiro[4.5]decan-8-yl)-3-(6-methoxypyridin-3-yl)-5-methyl-1,5-dihydro-4H-pyrazolo[3,4-d]pyrimidin-4-one] | 24 nM | – |
| C[C@@H]1OCC2(CCN(c3nc4[nH]nc(-c5ccnc(N)c5)c4c(=O)n3C)CC2)[C@@H]1N [Example 45, 6-((3S,4S)-4-amino-3-methyl-2-oxa-8-azaspiro[4.5]decan-8-yl)-3-(2-aminopyridin-4-yl)-5-methyl-1,5-dihydro-4H-pyrazolo[3,4-d]pyrimidin-4-one] | 37 nM | – |
| Cn1c(N2CCC3(CC2)CC(F)(F)C[C@H]3N)nc2[nH]nc(-c3ccncc3)c2c1=O [Example 51, (R)-6-(1-amino-3,3-difluoro-8-azaspiro[4.5]decan-8-yl)-5-methyl-3-(pyridin-4-yl)-1,5-dihydro-4H-pyrazolo[3,4-d]pyrimidin-4-one] | 14 nM | – |
| COc1ccc(-c2n[nH]c3nc(N4CCC5(CC4)CO[C@@H](C)[C@H]5N)n(C)c(=O)c23)cc1 [Example 42, 6-((3S,4S)-4-amino-3-methyl-2-oxa-8-azaspiro[4.5]decan-8-yl)-3-(4-methoxyphenyl)-5-methyl-1,5-dihydro-4H-pyrazolo[3,4-d]pyrimidin-4-one] | 20 nM | – |
| Cn1c(N2CCC3(CC2)C[C@H](F)C[C@H]3N)nc2[nH]nc(-c3ccnc(N)c3Cl)c2c1=O [Example 37, 3-(2-amino-3-chloropyridin-4-yl)-6-((1R,3S)-1-amino-3-fluoro-8-azaspiro[4.5]decan-8-yl)-5-methyl-1,5-dihydro-4H-pyrazolo[3,4-d]pyrimidin-4-one] | 27 nM | – |
| C[C@@H]1OCC2(CCN(c3nc4[nH]nc(-c5ccnc(N6CCCC6)c5Cl)c4c(=O)n3C)CC2)[C@@H]1N [Example 31, 6-((3S,4S)-4-amino-3-methyl-2-oxa-8-azaspiro[4.5]decan-8-yl)-3-(3-chloro-2-(pyrrolidin-1-yl)pyridin-4-yl)-5-methyl-1,5-dihydro-4H-pyrazolo[3,4-d]pyrimidin-4-one] | 12 nM | – |
| C[C@@H]1OCC2(CCN(c3nc4[nH]nc(-c5ccnc(N)c5Cl)c4c(=O)n3C)CC2)[C@@H]1N [Example 8, 3-(2-amino-3-chloropyridin-4-yl)-6-((3S,4S)-4-amino-3-methyl-2-oxa-8-azaspiro[4.5]decan-8-yl)-5-methyl-2,5-dihydro-4H-pyrazolo[3,4-d]pyrimidin-4-one] | – | 36 nM |
| Cn1c(N2CCC(C)(CN)CC2)nc2[nH]nc(-c3cccc(C(F)(F)F)c3Cl)c2c1=O [Example 26, 6-(4-(aminomethyl)-4-methylpiperidin-1-yl)-3-(2-chloro-3-(trifluoromethyl)phenyl)-5-methyl-1,5-dihydro-4H-pyrazolo[3,4-d]pyrimidin-4-one] | 127 nM | – |
| C[C@@H]1OCC2(CCN(c3nc4[nH]nc(-c5ccnc(Br)c5)c4c(=O)n3C)CC2)[C@@H]1N [Example 34, 6-((3S,4S)-4-amino-3-methyl-2-oxa-8-azaspiro[4.5]decan-8-yl)-3-(2-bromopyridin-4-yl)-5-methyl-1,5-dihydro-4H-pyrazolo[3,4-d]pyrimidin-4-one] | 27 nM | – |
| CC1(CN)CCN(c2cc3[nH]cc(-c4cccc(Cl)c4Cl)c3c(=O)[nH]2)CC1 [Example 11, 6-(4-(aminomethyl)-4-methylpiperidin-1-yl)-3-(2,3-dichlorophenyl)-1,5-dihydro-4H-pyrrolo[3,2-c]pyridin-4-one] | – | 86 nM |
| Cn1c(N2CCC3(CCC[C@H]3N)CC2)nc2[nH]nc(-c3ccnc(N)c3Cl)c2c1=O [Example 16, (R)-3-(2-amino-3-chloropyridin-4-yl)-6-(1-amino-8-azaspiro[4.5]decan-8-yl)-5-methyl-1,5-dihydro-4H-pyrazolo[3,4-d]pyrimidin-4-one] | 360 nM | – |
| Cc1ncccc1-c1n[nH]c2nc(N3CCC4(CC3)CO[C@@H](C)[C@H]4N)n(C)c(=O)c12 [Example 67, 6-((3S,4S)-4-amino-3-methyl-2-oxa-8-azaspiro[4.5]decan-8-yl)-5-methyl-3-(2-methylpyridin-3-yl)-1,5-dihydro-4H-pyrazolo[3,4-d]pyrimidin-4-one] | 96 nM | – |
| Cn1c(N2CCC3(CC2)C[C@@H](C(F)(F)F)C[C@H]3N)nc2[nH]nc(-c3ccncc3)c2c1=O [Example 54, 6-((1R,3R)-1-amino-3-(trifluoromethyl)-8-azaspiro[4.5]decan-8-yl)-5-methyl-3-(pyridin-4-yl)-1,5-dihydro-4H-pyrazolo[3,4-d]pyrimidin-4-one] | 21 nM | – |
| C[C@@H]1OCC2(CCN(c3nc4[nH]nc(-c5ccc(F)cc5)c4c(=O)n3C)CC2)[C@@H]1N [Example 57, 6-((3S,4S)-4-amino-3-methyl-2-oxa-8-azaspiro[4.5]decan-8-yl)-3-(4-fluorophenyl)-5-methyl-1,5-dihydro-4H-pyrazolo[3,4-d]pyrimidin-4-one] | 11 nM | – |
| C[C@@H]1OCC2(CCN(c3nc4[nH]nc(-c5ccncc5)c4c(=O)n3C)CC2)[C@@H]1N [Example 70, 6-((3S,4S)-4-amino-3-methyl-2-oxa-8-azaspiro[4.5]decan-8-yl)-5-methyl-3-(pyridin-4-yl)-1,5-dihydro-4H-pyrazolo[3,4-d]pyrimidin-4-one] | 8 nM | – |
| Cn1c(N2CCC(C)(CN)CC2)nc2[nH]nc(Sc3cccc(Cl)c3Cl)c2c1=O [Example 83, 6-(4-(aminomethyl)-4-methylpiperidin-1-yl)-3-((2,3-dichlorophenyl)thio)-5-methyl-1,5-dihydro-4H-pyrazolo[3,4-d]pyrimidin-4-one] | 8 nM | – |
| CC1(CN)CCN(c2nc3[nH]cc(-c4cccc(Cl)c4Cl)c3c(=O)[nH]2)CC1 [Example 3, 2-(4-(aminomethyl)-4-methylpiperidin-1-yl)-5-(2,3-dichlorophenyl)-3,7-dihydro-4H-pyrrolo[2,3-d]pyrimidin-4-one] | – | 62 nM |
| Cc1nc(N)ccc1-c1n[nH]c2nc(N3CCC4(CC3)C[C@@H](C(F)(F)F)C[C@H]4N)n(C)c(=O)c12 [Example 53, 3-(6-amino-2-methylpyridin-3-yl)-6-((1R,3R)-1-amino-3-(trifluoromethyl)-8-azaspiro[4.5]decan-8-yl)-5-methyl-1,5-dihydro-4H-pyrazolo[3,4-d]pyrimidin-4-one] | 36 nM | – |
| C[C@@H]1OCC2(CCN(c3nc4[nH]nc(-c5cccc(N)c5)c4c(=O)n3C)CC2)[C@@H]1N [Example 55, 6-((3S,4S)-4-amino-3-methyl-2-oxa-8-azaspiro[4.5]decan-8-yl)-3-(3-aminophenyl)-5-methyl-1,5-dihydro-4H-pyrazolo[3,4-d]pyrimidin-4-one] | 83 nM | – |
| C[C@@H]1OCC2(CCN(c3nc4[nH]nc(-c5ccnc(Cl)c5)c4c(=O)n3C)CC2)[C@@H]1N [Example 44, 6-((3S,4S)-4-amino-3-methyl-2-oxa-8-azaspiro[4.5]decan-8-yl)-3-(2-chloropyridin-4-yl)-5-methyl-1,5-dihydro-4H-pyrazolo[3,4-d]pyrimidin-4-one] | 16 nM | – |
| Cc1nc(N)ccc1-c1n[nH]c2nc(N3CCC4(CC3)C[C@@H](C)C[C@H]4N)n(C)c(=O)c12 [Example 48, 3-(6-amino-2-methylpyridin-3-yl)-6-((1R,3R)-1-amino-3-methyl-8-azaspiro[4.5]decan-8-yl)-5-methyl-1,5-dihydro-4H-pyrazolo[3,4-d]pyrimidin-4-one] | 16 nM | – |
| CNc1cc(-c2n[nH]c3nc(N4CCC5(CC4)CO[C@@H](C)[C@H]5N)n(C)c(=O)c23)ccn1 [Example 46, 6-((3S,4S)-4-amino-3-methyl-2-oxa-8-azaspiro[4.5]decan-8-yl)-5-methyl-3-(2-(methylamino)pyridin-4-yl)-1,5-dihydro-4H-pyrazolo[3,4-d]pyrimidin-4-one] | 50 nM | – |
| COc1cccc(-c2n[nH]c3nc(N4CCC5(CC4)COC[C@H]5N)n(C)c(=O)c23)c1Cl [Example 68, (S)-6-(4-amino-2-oxa-8-azaspiro[4.5]decan-8-yl)-3-(2-chloro-3-methoxyphenyl)-5-methyl-1,5-dihydro-4H-pyrazolo[3,4-d]pyrimidin-4-one] | 25 nM | – |

— US10975080B2, “Compounds and compositions for inhibiting the activity of SHP2” (NOVARTIS AG, priority 2015, dated 2021)
